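Grown in 96-well plates, cells were treated for 48 hours with each compound at five concentrations. Insufficient inhibition: endpoint recorded as highest concentration tested. GI50 = concentration required for 50% inhibition of growth. TGI denotes the concentration required for complete inhibition of growth.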
What was measured:
Experiment in all cases: inhibition of tumour cell growth, NCI panel, 48 h
[1] = test system: SR leukemia
[2] = test system: SK-MEL-2 melanoma
[3] = test system: UACC-257 melanoma
[4] = test system: RPMI-8226 leukemia
[5] = test system: PC-3 prostate
[6] = test system: SW-620 colon
[7] = test system: SNB-75 CNS
[8] = test system: CAKI-1 renal
[9] = test system: SK-MEL-28 melanoma
[10] = test system: MALME-3M melanoma
[11] = test system: LOX IMVI melanoma
[12] = test system: SF-295 CNS
[13] = test system: A498 renal
[14] = test system: EKVX NSCLC
[15] = test system: MDA-MB-231 breast
[16] = test system: HCC-2998 colon
[17] = test system: NCI/ADR-RES ovarian
[18] = test system: K-562 leukemia
[19] = test system: HL-60(TB) leukemia
[20] = test system: HOP-62 NSCLC
[21] = test system: OVCAR-4 ovarian
[22] = test system: HCT-15 colon
[23] = test system: TK-10 renal
[24] = test system: SK-MEL-5 melanoma
[25] = test system: M14 melanoma
[26] = test system: SN12C renal
[27] = test system: SF-268 CNS
[28] = test system: UO-31 renal
[29] = test system: RXF 393 renal
[30] = test system: ACHN renal
[31] = test system: NCI-H522 lung
[32] = test system: OVCAR-8 ovarian
[33] = test system: NCI-H23 lung
[34] = test system: OVCAR-5 ovarian
[35] = test system: HS 578T breast
[36] = test system: U251 CNS
[37] = test system: A549 NSCLC
[38] = test system: DU-145 prostate
[39] = test system: KM12 colon
[40] = test system: SK-OV-3 ovarian
[41] = test system: SNB-19 CNS
[42] = test system: 786-0 renal
[43] = test system: BT-549 breast
[44] = test system: NCI-H460 lung
[45] = test system: IGROV1 ovarian
[46] = test system: CCRF-CEM leukemia
[47] = test system: MCF7 breast
[48] = test system: HOP-92 NSCLC
[49] = test system: HT29 colon
[50] = test system: MOLT-4 leukemia
[51] = test system: UACC-62 melanoma
[52] = test system: HCT-116 colon
[53] = test system: T-47D breast
[54] = test system: COLO 205 colon

SMILES: COc1cc(OC)c(/C=C/S(=O)(=O)Cc2ccc(OC)c(NCC(=O)NO)c2)c(OC)c1
- GI50 [1]: < 10.4 nM
- TGI [1]: > 100000 nM
- GI50 [2]: > 100000 nM
- TGI [2]: > 100000 nM
- GI50 [3]: > 100000 nM
- TGI [3]: > 100000 nM
- GI50 [4]: 45 nM
- TGI [4]: > 100000 nM
- GI50 [5]: 28.5 nM
- TGI [5]: > 100000 nM
- GI50 [6]: 27.9 nM
- TGI [6]: > 100000 nM
- GI50 [7]: < 10 nM
- TGI [7]: 72.6 nM
- GI50 [8]: < 10 nM
- TGI [8]: > 100000 nM
- GI50 [9]: > 23700 nM
- TGI [9]: > 100000 nM
- GI50 [10]: > 100000 nM
- TGI [10]: > 100000 nM
- GI50 [11]: < 10 nM
- TGI [11]: > 100000 nM
- GI50 [12]: < 10 nM
- TGI [12]: > 100000 nM
- GI50 [13]: < 10 nM
- TGI [13]: 101 nM
- GI50 [14]: 58 nM
- TGI [14]: > 100000 nM
- GI50 [15]: 45.7 nM
- TGI [15]: > 100000 nM
- GI50 [16]: 34.6 nM
- TGI [16]: > 100000 nM
- GI50 [17]: < 10 nM
- TGI [17]: > 100000 nM
- GI50 [18]: < 10 nM
- TGI [18]: > 100000 nM
- GI50 [19]: 19.1 nM
- TGI [19]: 59.3 nM
- GI50 [20]: 47.2 nM
- TGI [20]: > 100000 nM
- GI50 [21]: 46100 nM
- TGI [21]: > 100000 nM
- GI50 [22]: 13.1 nM
- TGI [22]: > 100000 nM
- GI50 [23]: > 100000 nM
- TGI [23]: > 100000 nM
- GI50 [24]: 18.5 nM
- TGI [24]: 182 nM
- GI50 [25]: 22 nM
- TGI [25]: > 100000 nM
- GI50 [26]: 55.5 nM
- TGI [26]: > 100000 nM
- GI50 [27]: 86.3 nM
- TGI [27]: > 100000 nM
- GI50 [28]: 72.3 nM
- TGI [28]: > 100000 nM
- GI50 [29]: < 11 nM
- TGI [29]: > 100000 nM
- GI50 [30]: < 15.2 nM
- TGI [30]: > 100000 nM
- GI50 [31]: < 10 nM
- GI50 [32]: 35.6 nM
- TGI [32]: > 100000 nM
- GI50 [33]: 41.4 nM
- TGI [33]: > 100000 nM
- GI50 [34]: 53.5 nM
- TGI [34]: > 100000 nM
- GI50 [35]: < 14.2 nM
- TGI [35]: > 100000 nM
- GI50 [36]: 35.5 nM
- TGI [36]: > 100000 nM
- GI50 [37]: 36.4 nM
- TGI [37]: > 100000 nM
- GI50 [38]: 39.5 nM
- TGI [38]: > 100000 nM
- GI50 [39]: 10.5 nM
- TGI [39]: > 100000 nM
- GI50 [40]: 69.7 nM
- TGI [40]: > 100000 nM
- GI50 [41]: 43.4 nM
- TGI [41]: > 100000 nM
- GI50 [42]: 40.9 nM
- TGI [42]: > 100000 nM
- GI50 [43]: 22.1 nM
- GI50 [44]: 25.6 nM
- TGI [44]: > 100000 nM
- GI50 [45]: 24.1 nM
- TGI [45]: > 100000 nM
- GI50 [46]: 41 nM
- TGI [46]: > 100000 nM
- GI50 [47]: 14.2 nM
- TGI [47]: > 100000 nM
- GI50 [48]: 77.7 nM
- TGI [48]: > 100000 nM
- GI50 [49]: 36.8 nM
- TGI [49]: 4840 nM
- GI50 [50]: 41.5 nM
- TGI [50]: > 100000 nM
- GI50 [51]: < 10 nM
- TGI [51]: > 100000 nM
- GI50 [52]: 19.8 nM
- GI50 [53]: 17800 nM
- TGI [53]: > 100000 nM
- GI50 [54]: 31.6 nM
- TGI [54]: 119 nM

From PubChem BioAssay (NCI)
